In publication PMC4201456, “Cytoxicity and Apoptotic Mechanism of Ruthenium(II) Amino Acid Complexes in Sarcoma-180 Tumor Cells” (PLoS ONE, 2014):

Legend:
Assay type in all cases: cell-based, murine
S180 tumor cells = assay: Annexin V-FITC/PI double staining, flow cytometry
Protocol: The cell death of S180 tumor cells was examined using the Annexin V-FITC Apoptosis Detection Kit (BD Biosciences) according to the manufacturer's instructions. S180 cells were treated with complex 2 (40 µM and 60 µM) for 24 h and 48 h. Briefly, 5.0×10^5 cells were harvested and washed with PBS. The cells were re-suspended in 400 µL of binding buffer. Next, 5 µL of Annexin V-FITC and 1 µL of PI were added. Flow cytometric analysis was performed immediately after supravital staining. Data acquisition and analysis were performed on a flow cytometer (FACSCalibur, BD Biosciences) using Cell Quest software. The criteria for positivity in cells in early stages of apoptosis were Annexin V-positive and PI-negative, whereas the criteria for cells in the late stages of apoptosis were both Annexin V-positive and PI-positive.

bax = assay: Real-time RT-PCR gene expression, bax; conditions: S180 cells, 40 µM, 6 h; normalized to β-actin
Protocol: (§1) The S180 cells were treated with 40 µM complex 2 for 6 h. Total RNA was extracted with Trizol reagent (Sigma-Aldrich, USA) following the manufacturer's protocol. Total RNA (2.0 µg) was used to produce complementary DNA (cDNA) with random primers (Applied Biosystems, USA) in a 20 µL reaction mixture according to the manufacturer's protocol.
(§2) Real-time PCR was carried out using a Line Gene K (Bioer Technology) instrument. Real-time PCR reactions were carried out in a 20 µL reaction mixture, including 2 µL of cDNA, 10 µL of SYBR Green PCR Master Mix (LGC Biotechnology, UK), and 2.0 µL of 400 nM forward and reverse primers. The PCR program was initiated at 95°C for 15 min followed by 40 cycles of 95°C for 15 s, 55°C for 15 s, and 72°C for 30 s. The data were analyzed according to the comparative Ct method and were normalized to the β-actin reference gene expression in each sample.

caspase 8 = assay: Real-time RT-PCR gene expression, caspase 8; conditions: S180 cells, 40 µM, 6 h; p>0.05
Protocol: as §1, §2

expression level of caspase 8 compared with control (caspase 8): remained unchanged
Structure (SMILES): F[P-](F)(F)(F)(F)F.NCC(=O)[O-].[Ru+2].c1ccc(-c2ccccn2)nc1.c1ccc(P(CCCCP(c2ccccc2)c2ccccc2)c2ccccc2)cc1 [Complex 2, [Ru(gly)(bipy)(dppb)]PF6]
cells in early apoptosis (Annexin V+ and PI-) (S180 tumor cells; 40 µM, 24 h): 19.76%
cells in late apoptosis (Annexin V+ and PI+) (S180 tumor cells; 40 µM, 24 h): 22.76%
cells in early apoptosis (Annexin V+ and PI-) (S180 tumor cells; 40 µM, 48 h): 42.59%
cells in late apoptosis (Annexin V+ and PI+) (S180 tumor cells; 40 µM, 48 h): 25.16%
cells in early apoptosis (Annexin V+ and PI-) (S180 tumor cells; 60 µM, 24 h): 22.48%
cells in late apoptosis (Annexin V+ and PI+) (S180 tumor cells; 60 µM, 24 h): 31.67%
cells in early apoptosis (Annexin V+ and PI-) (S180 tumor cells; 60 µM, 48 h): 47.48%
cells in late apoptosis (Annexin V+ and PI+) (S180 tumor cells; 60 µM, 48 h): 30.24%
expression level of the bax gene compared to untreated control (bax): 2.75 fold
